Laboratory results as given in US20180363025A1, “T[…] FOR GUT INFLAMMATION” (William Marsh Rice University, priority 2015, published 2018).
Entries after “also recorded” stand apart in the source; their conditions may differ.

Assays:
Shal_3128/9 [1] = settings: TEAs tested at 10 mM; E. coli BW28357 expressing Shal_3128/9; FIG. 3D
Source text: The sensor kinase was expressed from a p15A medium-copy expression vector with spectinomycin resistance. Production of Shal_3128 was driven by the Ptac promoter and a designed synthetic RBS (predicted strength 1,000), which was induced by IPTG and regulated by constitutively expressed LacI. Transcription of Shal_3128, LacI, and Spec^R was terminated by the B0015, T1, and T0 terminators, respectively.
The response regulator and rewired output promoter driving GFP production were on a ColE1 high-copy expression vector with chloramphenicol resistance. Shal_3129 production was regulated by constitutively expressed TetR at the PLTetO-1 aTc-inducible promoter with a synthetic RBS (predicted strength 1,000). […] Production of sfGFP was regulated by output of the PShal_3127 promoter using the B0034 RBS, which provides a visual readout of Shal_3128/9 activity. Transcription of Shal_3129, sfGFP, TetR, and Cm^R was terminated by the B0015, B0015, T1, and T0 terminators, respectively.
Both plasmids were transformed into the BW28357 E. coli strain, available from The Coli Genetic Stock Center (CGSC#: 7991, F−, Δ(araD-araB)567, ΔlacZ4787(TrnB-3); lambda^−, Δ(rhaD-rhaB)568, hsdR514).

thiosulfate sensor = assay: Effect of DSS on GFP output of optimized thiosulfate sensor; assay type: cell-based, Shewanella halifaxensis; settings: 3% DSS; optimized constitutive sensor in E. coli Nissle; FIG. 4D
Source text: FIG. 4A-D. Sensor optimization for thiosulfate detection in the gut. (4A) Changes made between the initial characterization constructs and in vivo optimized sensor. (4B) Layout of sensor components on the final two plasmid expression system. (4C) Normalized dose-response behavior of thiosulfate sensors. Shown is the original, inducible, BW28357 strain grown aerobically (closed circles), and the selected constitutive promoter strain in Nissle grown aerobically (closed squares) and anaerobically (open squares). A shift in half-maximal response indicates sensitivity to oxygen. (4D) Dynamic range of optimized thiosulfate sensors. GFP output is shown in the absence (grey bars) and presence of 5 mM thiosulfate or 1 mM tetrathionate, respectively (black bars).

Shal_3128/9 [2] = assay: Ligand competition assay, sensor response to thiosulfate in presence of other TEAs; assay type: cell-based, Shewanella halifaxensis; settings: 5 mM thiosulfate plus 10 mM other TEA; FIG. 3E
Procedure: FIG. 3A-F. Characterization of the thiosulfate-sensing proteins: Shal_3128/9. (3A) The S. halifaxensis genomic region containing the thiosulfate reductase operon (Shal_3125-7) and neighboring thiosulfate-sensing TCS (Shal_3128/9). (3B) Plasmid design of the inducible thiosulfate sensor. […] (3D) Selectivity of Shal_3128/9 to thiosulfate over other terminal electron acceptors. All TEAs were tested at 10 mM concentration. (3E) Ligand competition assay. Sensor performance at 5 mM thiosulfate was tested in the presence of 10 mM other TEAs, and a decrease in response indicates inhibition by the added ligand. (3F) Inhibition curve of tetrathionate (filled circles) and sulfite (open squares) in the presence of 5 mM thiosulfate.

Chain of thiosulfate sensor (as listed by the source): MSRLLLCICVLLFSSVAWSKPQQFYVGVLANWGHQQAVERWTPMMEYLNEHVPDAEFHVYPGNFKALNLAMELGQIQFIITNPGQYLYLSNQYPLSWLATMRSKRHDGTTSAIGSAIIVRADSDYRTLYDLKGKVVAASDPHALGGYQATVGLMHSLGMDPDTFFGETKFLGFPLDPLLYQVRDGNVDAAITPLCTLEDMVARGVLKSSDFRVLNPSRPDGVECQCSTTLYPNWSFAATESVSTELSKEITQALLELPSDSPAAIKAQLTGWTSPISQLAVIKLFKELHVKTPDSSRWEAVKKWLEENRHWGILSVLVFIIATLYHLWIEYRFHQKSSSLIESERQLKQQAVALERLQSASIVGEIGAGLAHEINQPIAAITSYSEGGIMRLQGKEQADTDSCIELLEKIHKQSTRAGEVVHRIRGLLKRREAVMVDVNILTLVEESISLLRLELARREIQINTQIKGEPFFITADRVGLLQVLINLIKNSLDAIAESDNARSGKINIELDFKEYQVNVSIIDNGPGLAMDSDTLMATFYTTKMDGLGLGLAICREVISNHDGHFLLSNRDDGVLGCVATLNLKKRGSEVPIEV
Chain of thiosulfate sensor (as listed by the source partner): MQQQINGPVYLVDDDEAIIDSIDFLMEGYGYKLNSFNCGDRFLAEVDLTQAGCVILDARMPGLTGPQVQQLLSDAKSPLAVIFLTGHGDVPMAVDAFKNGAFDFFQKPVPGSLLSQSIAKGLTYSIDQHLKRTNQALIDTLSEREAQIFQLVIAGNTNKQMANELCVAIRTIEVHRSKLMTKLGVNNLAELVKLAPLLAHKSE

Compound	competition (inhibition of thiosulfate response) (Shal_3128/9 [2])	other results
O=S(O)(O)=S [thiosulfate]		stimulation of production of reporter protein GFP (Shal_3128/9 [1]): effectively stimulated production of reporter protein GFP
Dextran Sodium Sulfate [DSS]		activation or inhibition of sensor signaling (thiosulfate sensor): does not activate or inhibit signaling; also recorded: does not appear to be sensitive
O=S(O)O [sulfite]	modest level of competition	
O=S(=O)(O)SSS(=O)(=O)O [tetrathionate]	modest level of competition	
